The text below walks through data of PubChem BioAssay AID328 (DTP/NCI, 2004).

Values joined by “and” are separate entries in the source; they are usually repeats but may differ in a detail not shown here. Equal entries are not always repeated. Inconclusive results and toxic doses are left out.

The test system of this test is BDF1 mice, P388 leukemia ip, median survival T/C. Kind of test: NCI In Vivo Anticancer Drug Screen. Data for tumor model P388 Leukemia (intraperitoneal) in B6D2F1 (BDF1) mice. Conditions: endpoint: median survival time, higher = longer survival. In a few lines:
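Vehicle-dosed animals serve as the reference; survival of compound-dosed, tumour-implanted mice is divided by it.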

Where [1] appears, read: dose: 50.0 mg/kg/injection, schedule: Q01DX009 (ip), vehicle: Klucel (hydroxypropylcellulose) (HPC).
Where [2] appears, read: dose: 200.0 mg/kg/injection, schedule: Q01DX009 (ip), vehicle: saline with Tween-80.
The mark [3] stands for this setting: dose: 100.0 mg/kg/injection, schedule: Q04DX003 (ip), vehicle: saline.
The mark [4] stands for this setting: dose: 200.0 mg/kg/injection, schedule: Q04DX003 (ip), vehicle: saline.
Setting [5] is: dose: 400.0 mg/kg/injection, schedule: Q04DX003 (ip), vehicle: saline.
Setting [6] is: dose: 100.0 mg/kg/injection, schedule: Q04DX003 (ip), vehicle: saline with Tween-80.
Setting [7] is: dose: 200.0 mg/kg/injection, schedule: Q04DX003 (ip), vehicle: saline with Tween-80.
Where [8] appears, read: dose: 100.0 mg/kg/injection, schedule: Q01DX009 (ip), vehicle: saline with Tween-80.
[9] abbreviates: dose: 12.5 mg/kg/injection, schedule: Q01DX009 (ip), vehicle: Klucel (hydroxypropylcellulose) (HPC).
Setting [10] is: dose: 25.0 mg/kg/injection, schedule: Q01DX009 (ip), vehicle: Klucel (hydroxypropylcellulose) (HPC).
Where [11] appears, read: dose: 50.0 mg/kg/injection, schedule: Q01DX009 (ip), vehicle: saline with Tween-80.

Consider `CN(C)c1ccc(/C=C\c2ccnc3ccccc23)cc1`, for which the T/C by setting is: (dose: 1.5 mg/kg/injection, schedule: Q01DX010 (ip), vehicle: saline) 100 % of control; (dose: 3.0 mg/kg/injection, schedule: Q01DX010 (ip), vehicle: saline) 95 % of control; (dose: 6.0 mg/kg/injection, schedule: Q01DX010 (ip), vehicle: saline) 100 % of control; (dose: 12.0 mg/kg/injection, schedule: Q01DX010 (ip), vehicle: saline) 109 % of control.

For `C[C@]12CC[C@H](O)C[C@@H]1CC[C@@H]1[C@@H]2C(=O)C[C@@]2(C)[C@H]1CC[C@]2(O)C(=O)CBr`, the T/C (dose: 12.5 mg/kg/injection, schedule: Q01DX009 (ip), vehicle: saline with Tween-80) is 114 % of control; the T/C under setting [1] was 113 % of control; the T/C (dose: 100.0 mg/kg/injection, schedule: Q01DX009 (ip), vehicle: Klucel (hydroxypropylcellulose) (HPC)) is 109 % of control; the T/C (dose: 100.0 mg/kg/injection, schedule: Q04DX003 (ip), vehicle: Klucel (hydroxypropylcellulose) (HPC)) was 100 % of control; the T/C under setting [2] was 118 % of control; the T/C (dose: 200.0 mg/kg/injection, schedule: Q04DX003 (ip), vehicle: Klucel (hydroxypropylcellulose) (HPC)) was 109 % of control. Also, the T/C (dose: 400.0 mg/kg/injection, schedule: Q04DX003 (ip), vehicle: Klucel (hydroxypropylcellulose) (HPC)) was 113 % of control.

With `O=c1[n-]cc(F)c(=O)[nH]1.O=c1[n-]cc(F)c(=O)[nH]1.[NH2-].[NH2-].[Pt+4]`, the T/C (dose: 100.0 mg/kg/injection, schedule: Q01DX009 (ip), vehicle: saline) was 100 % of control; the T/C under setting [3] was 120 % of control and 104 % of control; the T/C (dose: 200.0 mg/kg/injection, schedule: Q01DX009 (ip), vehicle: saline) was 120 % of control; the T/C under setting [4] was 113 % of control; the T/C under setting [5] was 100 % of control.

In the case of `Oc1cc(OCCCc2ccc(F)cc2)cc2ccc3ccccc3c12`, the T/C reads like this: under setting [6], 112 % of control; under setting [7], 86 % of control.

As to `C(#Cc1ccccc1)COCC1CO1` (stereo not drawn), the T/C reads like this: under setting [8], 116 % of control; under setting [3], 90 % of control; under setting [4], 90 % of control; under setting [5], 120 % of control.

`NOc1ccc([N+](=O)[O-])cc1[N+](=O)[O-]`: the T/C by setting is: (dose: 6.25 mg/kg/injection, schedule: Q01DX009 (ip), vehicle: Klucel (hydroxypropylcellulose) (HPC)) 115 % of control; under setting [9], 95 % of control; (dose: 16.5 mg/kg/injection, schedule: Q01DX009 (ip), vehicle: Klucel (hydroxypropylcellulose) (HPC)) 113 % of control; under setting [10], 103 % of control and 113 % of control.

With `CCOC1=C(N2CC2)C(=O)C(OCC)=C(N2CC2)C1=O`, the T/C by setting is: (dose: 0.07 mg/kg/injection, schedule: Q01DX009 (ip), vehicle: saline with Tween-80) 95 % of control; (dose: 0.25 mg/kg/injection, schedule: Q01DX009 (ip), vehicle: saline) 165 % of control; (dose: 0.25 mg/kg/injection, schedule: Q04DX003 (ip), vehicle: saline) 109 % of control; (dose: 0.3 mg/kg/injection, schedule: Q01DX009 (ip), vehicle: saline with Tween-80) 122 % of control; (dose: 0.5 mg/kg/injection, schedule: Q01DX009 (ip), vehicle: saline) 152 % of control and 190 % of control; (dose: 0.5 mg/kg/injection, schedule: Q04DX003 (ip), vehicle: saline) 154 % of control. Besides, the T/C runs as follows: (dose: 0.6 mg/kg/injection, schedule: Q01DX009 (ip), vehicle: saline with Tween-80) 153 % of control; (dose: 0.63 mg/kg/injection, schedule: Q04DX003 (ip), vehicle: saline) 122 % of control; (dose: 1.0 mg/kg/injection, schedule: Q01DX009 (ip), vehicle: saline) 245 % of control and 195 % of control; (dose: 1.0 mg/kg/injection, schedule: Q04DX003 (ip), vehicle: saline) 200 % of control; (dose: 2.0 mg/kg/injection, schedule: Q01DX009 (ip), vehicle: saline) 242 % of control and 105 % of control; (dose: 2.5 mg/kg/injection, schedule: Q04DX003 (ip), vehicle: saline) 172 % of control. Also, where the note is “dose: 4.0 mg/kg/injection, schedule: Q01DX009 (ip), vehicle: saline”, the T/C was 114 % of control.

In the case of `CC1CCC(NC2=NCCO2)C(C)C1` (stereo not drawn), the T/C by setting is: (dose: 12.5 mg/kg/injection, schedule: Q04DX003 (ip), vehicle: saline with Tween-80) 95 % of control; (dose: 25.0 mg/kg/injection, schedule: Q04DX003 (ip), vehicle: saline with Tween-80) 100 % of control; (dose: 50.0 mg/kg/injection, schedule: Q04DX003 (ip), vehicle: saline with Tween-80) 100 % of control.

On to `Cc1c(CO)[nH]c(=S)[nH]c1=O`, for which the T/C by setting is: (dose: 100.0 mg/kg/injection, schedule: Q01DX001 (ip), vehicle: Klucel (hydroxypropylcellulose) (HPC)) 90 % of control; (dose: 200.0 mg/kg/injection, schedule: Q01DX001 (ip), vehicle: Klucel (hydroxypropylcellulose) (HPC)) 104 % of control; (dose: 400.0 mg/kg/injection, schedule: Q01DX001 (ip), vehicle: Klucel (hydroxypropylcellulose) (HPC)) 95 % of control.

On to `CN(C)c1ccc(C(=O)c2ccc(N(C)C)cc2)cc1`, for which the T/C is 113 % of control under setting [6]; 108 % of control (dose: 118.0 mg/kg/injection, schedule: Q04DX003 (ip), vehicle: saline with Tween-80); 106 % of control and 110 % of control (dose: 177.0 mg/kg/injection, schedule: Q04DX003 (ip), vehicle: saline with Tween-80); 109 % of control under setting [7]; 120 % of control (dose: 264.0 mg/kg/injection, schedule: Q04DX003 (ip), vehicle: saline with Tween-80); 103 % of control (dose: 265.0 mg/kg/injection, schedule: Q04DX003 (ip), vehicle: saline with Tween-80). Besides, the T/C is 100 % of control (dose: 266.0 mg/kg/injection, schedule: Q04DX003 (ip), vehicle: saline with Tween-80) and 105 % of control (dose: 400.0 mg/kg/injection, schedule: Q04DX003 (ip), vehicle: saline with Tween-80).

In the case of `CC(Oc1ccccc1)C(=O)N=c1scc(-c2ccc(Br)cc2)n1-c1cccc2ccccc12` (stereo not drawn), the T/C was 110 % of control (dose: 12.5 mg/kg/injection, schedule: Q01DX009 (ip), vehicle: gum acacia) and 118 % of control (dose: 50.0 mg/kg/injection, schedule: Q01DX009 (ip), vehicle: gum acacia).

With `NNCc1c(C(=O)O)oc2ccccc12`, the T/C under setting [11] is 99 % of control and the T/C under setting [8] was 100 % of control.

With `CC(=O)OC1OC(CSC(=N)N)C(OC(C)=O)C(OC(C)=O)C1OC(C)=O` (stereo not drawn), the T/C under setting [11] is 116 % of control, the T/C under setting [8] is 119 % of control and the T/C under setting [2] is 110 % of control.

Regarding `O=C1Nc2ccccc2SC1C1SC(=S)N(Cc2ccccc2)C1=O` (stereo not drawn), the T/C was 102 % of control under setting [11], 86 % of control under setting [8] and 86 % of control under setting [2].

Take `C=C(C)C1CCC2=CC(CC3(C)OC3C3=CC(C(=O)OC)=C(C1)O3)OC2=O` (stereo not drawn): the T/C under setting [1] was 86 % of control.

For the compound `C1CN1P1(N2CC2)=NP(N2CC2)(N2CC2)=NP(N2CC2)(N2CC2)=N1`, the T/C is, setting by setting: (dose: 0.61 mg/kg/injection, schedule: Q01DX009 (ip), vehicle: saline) 109 % of control; (dose: 0.92 mg/kg/injection, schedule: Q01DX009 (ip), vehicle: saline) 118 % of control; (dose: 2.1 mg/kg/injection, schedule: Q01DX009 (ip), vehicle: saline) 154 % of control; (dose: 3.3 mg/kg/injection, schedule: Q01DX009 (ip), vehicle: saline) 180 % of control and 203 % of control and 204 % of control; (dose: 5.0 mg/kg/injection, schedule: Q01DX009 (ip), vehicle: saline) 190 % of control and 218 % of control; (dose: 7.5 mg/kg/injection, schedule: Q01DX009 (ip), vehicle: saline) 265 % of control and 272 % of control and 153 % of control.

For `CCOC(=O)c1cnc(=O)[nH]c1N`, the T/C under setting [11] was 99 % of control.

`Cc1onc(-c2c(Cl)cccc2Cl)c1C(=O)Nc1ccccc1CC1c2ccccc2CCN1C` (stereo not drawn): the T/C is, setting by setting: under setting [9], 96 % of control; under setting [10], 99 % of control; under setting [1], 89 % of control and 102 % of control.

Consider `CCCCC#CC(=O)OC`, for which the T/C reads like this: (dose: 25.0 mg/kg/injection, schedule: Q01DX009 (ip), vehicle: saline with Tween-80) 116 % of control; under setting [11], 104 % of control; under setting [8], 100 % of control; under setting [2], 114 % of control.
